# Tests used:
# [1] = target: T1, Amine oxidase [flavin-containing] A (Homo sapiens, UniProt P21397); assay: MAO Inhibition Assay
# T1 sequence (P21397 whole entry): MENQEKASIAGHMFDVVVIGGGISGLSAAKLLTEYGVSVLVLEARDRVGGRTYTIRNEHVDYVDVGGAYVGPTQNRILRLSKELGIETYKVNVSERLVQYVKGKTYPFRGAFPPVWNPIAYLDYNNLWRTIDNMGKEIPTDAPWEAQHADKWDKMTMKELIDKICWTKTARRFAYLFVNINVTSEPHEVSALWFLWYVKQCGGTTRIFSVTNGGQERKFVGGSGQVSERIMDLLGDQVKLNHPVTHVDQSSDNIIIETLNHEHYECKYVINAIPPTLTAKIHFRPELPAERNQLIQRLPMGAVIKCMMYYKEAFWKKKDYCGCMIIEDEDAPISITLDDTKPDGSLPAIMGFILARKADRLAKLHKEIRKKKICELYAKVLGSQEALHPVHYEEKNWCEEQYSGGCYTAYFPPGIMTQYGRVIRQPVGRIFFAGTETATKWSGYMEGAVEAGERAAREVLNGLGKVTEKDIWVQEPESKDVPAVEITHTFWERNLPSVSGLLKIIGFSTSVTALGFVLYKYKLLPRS
# Protocol: (§1) The protocol for measuring IC50 values for the inhibition of MAO-A and MAO-B has been reported in detail in a recent publication (26). The recombinant human MAO enzymes were used, and kynuramine served as non-selective MAO substrate. The MAOs oxidize kynuramine to ultimately yield a fluorescent metabolite, 4-hydroxyquinoline, which was measured by fluorescence spectrophotometry (kex = 310; kem = 400 nm).
# Amine oxidase = target: T2, Amine oxidase (Homo sapiens, UniProt Q8TBI1); assay: MAO Inhibition Assay
# T2 sequence (Q8TBI1 whole entry): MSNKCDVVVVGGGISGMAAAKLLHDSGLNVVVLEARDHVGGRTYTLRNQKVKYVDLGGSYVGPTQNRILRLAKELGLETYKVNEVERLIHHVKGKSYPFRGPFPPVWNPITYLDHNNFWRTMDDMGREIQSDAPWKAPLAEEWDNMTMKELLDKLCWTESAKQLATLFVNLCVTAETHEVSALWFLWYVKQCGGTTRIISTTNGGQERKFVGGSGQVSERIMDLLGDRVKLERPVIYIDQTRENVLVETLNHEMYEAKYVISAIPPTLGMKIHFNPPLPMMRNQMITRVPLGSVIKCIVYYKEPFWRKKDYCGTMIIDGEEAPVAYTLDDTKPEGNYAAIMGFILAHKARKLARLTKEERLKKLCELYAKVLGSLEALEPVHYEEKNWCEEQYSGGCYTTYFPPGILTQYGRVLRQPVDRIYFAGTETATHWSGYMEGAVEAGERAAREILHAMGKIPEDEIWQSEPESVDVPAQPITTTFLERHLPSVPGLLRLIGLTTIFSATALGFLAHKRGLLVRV
# Protocol: as §1
smiles,measurement,setting,value
CC1=CC(=O)c2c(O)cccc2C1=O,IC50,[1],4.91 µM
same,IC50,Amine oxidase,1.09 µM
"O=C1C=CC(=O)c2ccccc21 [1,4-dihydronaphthalene-1,4-dione]",IC50,[1],3.43 µM
same,IC50,Amine oxidase,8.4 µM
"O=C1C(Cl)=C(OCCCCO)C(=O)c2ccccc21 [2-chloro-3-(4-hydroxybutoxy)-1,4-dihydronaphthalene-1,4-dione (5h)]",IC50,[1],5.06 µM
same,IC50,Amine oxidase,3.06 µM
"CC(C)=CCC(O)C1=CC(=O)c2c(O)ccc(O)c2C1=O (centres undefined) [5,8-dihydroxy-2-(1-hydroxy-4-methylpent-3-enyl)naphthalene-1,4-dione]",IC50,[1],1.5 µM
same,IC50,Amine oxidase,1.01 µM
"O=C1C=CC(=O)c2c(O)ccc(O)c21 [5,8-dihydroxy-1,4-naphthoquinone]",IC50,Amine oxidase,0.86 µM
"O=C1C(Cl)=C(Cl)C(=O)c2ccccc21 [2,3-dichloro-1,4-dihydronaphthalene-1,4-dione]",IC50,[1],2 µM
same,IC50,Amine oxidase,2.61 µM
CC1=CC(=O)c2ccccc2C1=O [Vitamin K3],IC50,[1],10.2 µM
same,IC50,Amine oxidase,3.02 µM
"CC1=C(CCl)C(=O)c2ccccc2C1=O [2-(chloromethyl)-3-methyl-1,4-dihydronaphthalene-1,4-dione (5f)]",IC50,Amine oxidase,10.8 µM
"O=C1C(O)=C(Cl)C(=O)c2ccccc21 [2-chloro-3-hydroxy-1,4-dihydronaphthalene-1,4-dione (5g)]",IC50,Amine oxidase,3.45 µM
COC1=CC(=O)c2ccccc2C1=O,IC50,[1],20.4 µM
same,IC50,Amine oxidase,24.8 µM
"O=C1C=CC(=O)c2c(O)cccc21 [5-hydroxy-1,4-dihydronaphthalene-1,4-dione]",IC50,[1],1.71 µM
same,IC50,Amine oxidase,4.36 µM
